Where “and” joins values, the source holds several entries; their conditions need not be identical. Equal values may be shown once. Residues, ends and D or L forms follow the SMILES beside them.
Key:
MRSA ATCC 43300 = assay: antimicrobial activity in presence of Muller-Hinton 20%; assay type: cell-based, Staphylococcus aureus; conditions: 20% of Muller-Hinton medium
Description: (§1) This example verifies the peptides antimicrobial activity in presence of a concentration of 20% of Muller-Hinton liquid medium, characterized by the presence of salts with high concentration.
(§2) Peptides were tested in the ability to inhibit bacterial growth in liquid medium. 50 µl of peptides at a concentration between 3.1 µg/ml (NCP-0=1.4µM; NCP-2=[…]; NCP-3=1.3 µM) and 100 µg/ml (NCP-0=46.3 µM; NCP-2=43.2 µM; NCP-3=41.6 µM) were added in microtiter plate wells with phosphate buffer 10 mM with Muller-Hinton liquid medium al the final concentration of 20% and one of these bacteria: E. coli ATCC 25922, Pseudomonas aeruginosa ATCC 27853, Staphylococcus aureus ATCC 25923 and Staphylococcus aureus methicillin resistant ATCC 43300. After 2 hours incubation at 37°C, bacteria were transplanted on solid culture medium. Bacterial cultures were cultivated without peptides as growth control.

[1] = tested on: Candida albicans ATCC 10231; assay: micro-dilution in liquid medium and transplant on solid medium, yeasts; assay type: cell-based; conditions: 2 hours at 37°C, transplant on agar Sabouraud
Description: (§3) Candida albicans ATCC 10231, Candida glabrata ATCC 2001 and Malassetia pachydermatis ATCC 14522 were cultivated in Czapek-Dox broth (DIFCO) medium for 48-72 hours. On the day of the test the fungal culture was centrifuged at 1700G for 15 minutes and the pellet resuspended in phosphate buffer, then put in agitation on an electric vortex to disrupt fungal cell aggregations. The suspension was diluted to get a final optical density of 0,5 of the McFarland scale (about 1-5x10^6 cell/ml) (Branda J.A., Krantz A. Effect of yeast on automated cell counting. Am J Clin Pathol., 2006:126, 248-254.).
(§4) Peptides ability to inhibit the fungal growth in liquid cultures was tested. 50 µl of each peptides solutions of about 0.2-50 µM were added in microtiter plates with 96 wells with U-shaped bottom, with liquid culture medium and one of these fungi: Candida albicans ATCC 10231, Candida glabrata ATCC 2001 and Malassetia pachydermatis ATCC 14522. After 2 hours of incubation at 37°C, fungal suspensions were plated on solid culture medium, agar Sabouraud. Fungal cultures were cultivated without peptides as growth control.
(§5) the fungal suspension and peptides at differing concentrations were in contact for about 2 hours at 37°C. After this incubation, 20 µl from every well of the plate were transplanted on solid culture medium, agar Sabouraud. The inoculum was evenly distributed on the agar with the aid of a sterile disposable handle. After an incubation time of 24 hours at 37°C, the fungal colonies (cfu) were counted.

[2] = tested on: Malassetia pachydermatis ATCC 14522; assay: as above; assay type: cell-based; conditions: 2 hours at 37°C, transplant on agar Sabouraud
Description: as §3, §4, §5

[3] = tested on: Candida glabrata ATCC 2001; assay: as above; assay type: cell-based; conditions: 2 hours at 37°C, transplant on agar Sabouraud
Description: as §3, §4, §5

[4] = tested on: Acinetobacter baumanii from skin (herpetological); assay: micro-dilution in liquid medium and transplant on agar, Gram-negative bacteria; assay type: cell-based; conditions: 2 hours at 37°C, transplant on agar
Description: (§6) For each bacterial strain 3-5 morphologically similar colonies from fresh cultures were taken and inoculated in Brain Heart Infusion broth, then incubated at 37°C in agitation at 225 r.p.m. for about 3-4 hours. Then the bacterial suspension was centrifuged at 1000 G for 20 minutes and the pellet resuspended in phosphate buffer pH 7, 10 mM. The turbidity of the bacterial suspension was measured using a spectrophotometer with absorbance of 600 nm; the range 0.08-0.13 equates to about 10^8 cfu/ml. The bacterial suspension was diluted 1:100 in phosphate buffer 10mM to obtain a bacterial concentration of about 10^6 cfu/ml. Within 30 minutes 50 µl of the suspension (10^6 cfu/ml) were inoculated in each well of the microtiter plate, to obtain a bacterial concentration of about 5x10^5 cfu/ml.
(§7) The peptides ability to inhibit the bacterial growth in liquid cultures was tested. 50 µl of each peptides solutions of about 0,2-50 µM were added in microtiter plates with 96 wells with U-shaped bottom, containing the liquid culture medium and one of these bacterial strains: E coli ATCC 25922, Pseudomonas. Aeruginosa ATCC 27853, Proteus mirabilis ATCC 14153, Burkholderia cepacia ATCC 17759, Moraxella catharralis ATCC 25238 or other wild strains of Klebsiella pneumoniae subsp. pneumoniae, Enterobacter cloacae, Acinetobacter baumanii.
(§8) After 2 hours incubation at 37°C, the bacteria were transplanted on solid medium. As a growth reference, bacterial cultures were grown in absence of peptides.
(§9) The bacterial suspension and peptides were put in contact for 2 hours at 37°C, with differing concentrations of the peptide. Then 20 µl from each well of the plate were taken and transferred on solid culture medium, McConkey agar. The inoculum was uniformly distributed on the agar medium with aid of a sterile disposable handle. After an incubation time of 24 hours at 37°C, the bacterial colonies (cfu) were counted.

E. coli ATCC 25922 [5] = assay: as above; assay type: cell-based; conditions: 2 hours at 37°C, transplant on agar
Description: as §6, §7, §8, §9

[6] = tested on: Enterobacter cloacae (herpetological); assay: as above; assay type: cell-based; conditions: 2 hours at 37°C, transplant on agar
Description: as §6, §7, §8, §9

[7] = tested on: Acinetobacter baumanii from cloaca (herpetological); assay: as above; assay type: cell-based; conditions: 2 hours at 37°C, transplant on agar
Description: as §6, §7, §8, §9

[8] = tested on: Burkholderia cepacia ATCC 17759; assay: as above; assay type: cell-based; conditions: 2 hours at 37°C, transplant on agar
Description: as §6, §7, §8, §9

E. coli ATCC 25922 [9] = assay: antimicrobial activity in presence of Muller-Hinton 20%; assay type: cell-based; conditions: 20% of Muller-Hinton medium
Description: as §1, §2

[10] = tested on: Staphylococcus aureus ATCC 25923; assay: as above; assay type: cell-based; conditions: 20% of Muller-Hinton medium
Description: as §1, §2

[11] = tested on: Pseudomonas aeruginosa ATCC 27853; assay: as above; assay type: cell-based; conditions: 20% of Muller-Hinton medium
Description: as §1, §2

[12] = tested on: epithelial MDBK cells (Madin Darby Bovine Kidney); assay: cytotoxicity against eukaryotic cells, Trypan Blue; assay type: cell-based; conditions: overnight incubation
Description: Peptides cytotoxicity against epithelial MDBK cells (Madin Darby Bovine Kidney) was determined using cell cultures of about 5x10^5 cells/ml with and without peptides, with overnight incubation at 37°C with CO2. The negative control was in medium without peptide; positive control was in medium with 0.2% of Triton x100, to completely lyse cells. Cells vitality was assessed adding every well with 20 µl of Trypan Blue, incubating other 5 minutes at 37°C. MCC10 was the minimal peptide concentration with 10% of cytotoxicity.

## CC[C@H](C)[C@H](NC(=O)[C@H](CCCCN)NC(=O)[C@H](Cc1ccc(O)cc1)NC(=O)[C@H](CS)NC(=O)[C@H](CC(C)C)NC(=O)[C@H](CC(N)=O)NC(=O)[C@H](CCCCN)NC(=O)CNC(=O)[C@H](C)NC(=O)[C@@H]1CCCN1C(=O)[C@H](CS)NC(=O)[C@@H](NC(=O)[C@H](CCCCN)NC(=O)[C@H](CO)NC(=O)[C@H](C)NC(=O)[C@@H](NC(=O)[C@@H]1CCCN1C(=O)[C@@H](NC(=O)[C@H](CC(C)C)NC(=O)[C@@H](N)CCCCN)[C@@H](C)CC)[C@@H](C)CC)[C@@H](C)O)C(=O)O [NCP-0, K LIPIA SKT CPA GKN LCY KI] (H-KLIPIASKTCPAGKNLCYKI-OH; N-terminus and C-terminus assumed)
MRSA ATCC 43300; peptide 3.1 µg/ml
  Antimicrobial activity (% to control): 0%
MRSA ATCC 43300; peptide 6.3 µg/ml
  Antimicrobial activity (% to control): 0%
MRSA ATCC 43300; peptide 12.5 µg/ml
  Antimicrobial activity (% to control): 0%
MRSA ATCC 43300; peptide 100 µg/ml
  Antimicrobial activity (% to control): 0%
[1]
  LD90: > 100 µg/ml and > 46.3 µM
  LD99: > 200 µg/ml and > 92.6 µM
[2]
  LD90: 150.82 µg/ml and 69.8 µM
  LD99: 151.87 µg/ml and 70.3 µM
[3]
  LD90: > 100 µg/ml and > 46.3 µM
  LD99: > 200 µg/ml and > 92.6 µM
[4]
  LD99: 117.96 µg/ml and 54.6 µM
E. coli ATCC 25922 [5]
  LD90: 152.02 µg/ml and 70 µM
[6]
  LD90: > 100 µg/ml and > 46.3 µM
  LD99: > 200 µg/ml and > 92.6 µM
[7]
  LD90: 142.80 µg/ml and 66.1 µM
  LD99: 202.98 µg/ml and 94 µM
[8]
  LD90: 39.35 µg/ml and 17.8 µM
  LD99: 39.43 µg/ml and 18.3 µM
E. coli ATCC 25922 [9]; peptide 3.1 µg/ml
  Antimicrobial activity (% to control): 0%
E. coli ATCC 25922 [9]; peptide 6.3 µg/ml
  Antimicrobial activity (% to control): 0%
E. coli ATCC 25922 [9]; peptide 12.5 µg/ml
  Antimicrobial activity (% to control): 0%
E. coli ATCC 25922 [9]; peptide 100 µg/ml
  Antimicrobial activity (% to control): 0%
[10]; peptide 3.1 µg/ml
  Antimicrobial activity (% to control): 0%
[10]; peptide 6.3 µg/ml
  Antimicrobial activity (% to control): 0%
[10]; peptide 12.5 µg/ml
  Antimicrobial activity (% to control): 0%
[10]; peptide 100 µg/ml
  Antimicrobial activity (% to control): 0%
[11]; peptide 3.1 µg/ml
  Antimicrobial activity (% to control): 0%
[11]; peptide 6.3 µg/ml
  Antimicrobial activity (% to control): 0%
[11]; peptide 12.5 µg/ml
  Antimicrobial activity (% to control): 0%
[11]; peptide 100 µg/ml
  Antimicrobial activity (% to control): 0%
[12]; peptide 12.5 µg/ml
  Cytotoxicity: cell number percentage reduction in comparison with control: 4%
[12]; peptide 100 µg/ml
  Cytotoxicity: cell number percentage reduction in comparison with control: 6%

From patent publication EP3298025B1, “NEW AMINO ACID SEQUENCES WITH MI[…] DERIVED FROM NAJA ATRA CARDIOTOXIN 1 (CTX-1)” (Università degli Studi di Parma, priority 2015, dated 2016)
